One assay relates to MMP-1. Description: Inhibition of UV-A induced expression of matrix metalloproteinase-1 (real time PCR) in primary human dermal fibroblasts. Format: cell-based. The note with it: skin fibroblasts; for % inhibition: inhibition of UV-A induced MMP-1 expression, 30 J/cm^2 UVA1; for MMP-1 expression relative to UV-A only treated cells: 30 J/cm^2 UVA1, MMP-1 RNA 24 hrs after irradiation, UV-A only = 100%. On the procedure: Primary human dermal fibroblasts were cultured in EMEM without glutamine (Earle's Minimum Essential Medium), supplemented with antibiotics/antimycotics, 2 mM L-glutamine and 7.5% fetal calf serum at 37° C.[…] and grown to 100% confluency. Forty-eight hours prior to irradiation the cells were preincubated with the desired substances in EMEM (with AB/AM, L-Glutamine and 2% FCS. After 24 hours the medium was replaced by fresh medium with substances (fresh prepared). For irradiation, the medium was removed and after 6 wash steps with phosphate-buffered saline (PBS) replaced by phosphate-buffered saline (PBS). The plate was then exposed to 30 J/cm^2 UVA1. The UVA1 output was approximately 150 mW/cm^2. After irradiation the phosphate-buffered saline in the cell microplate was exchanged against culture medium (+7.5% FCS) with the substances (fresh prepared) and the cells were incubated in a CO2-incubator for further 24 hrs (MMP-1 determination). The culture medium was removed, the cells were rinsed with phosphate-buffered saline and the whole plate was frozen in liquid nitrogen. Total RNA was isolated using RNeasy Total RNA Kits (Qiagen, Hilden; Germany). The RNA concentration was determined via photometric measurement at 260/280. Aliquots of total RNA (75 ng) were applied for cDNA-Synthesis using Superscript™ First-Strand synthesis system for RT-PCR. Two samples for each compound were analyzed. The PCR reactions were carried out on an Opticon 1 (MJ Research, Waltham, Mass., USA) using SYBR Green® PCR Master Mix (Applied Biosystems, Darmstadt, Germany). For comparison of relative expression in real time PCR control cells and treated cells the 2 ^(−delta delta C(T)) method was used.

The subject of a further assay is UVA-induced MMPI. The note with it: literature statement; increase only prevented in combination with vitamin E; cited from earlier work.
For the next assay, the system named is UVA-induced collagenases. The note with it: literature statement; cited from earlier work.
For the next assay, the system named is skin collagenases. The note with it: literature statement; cited from earlier work.

Usually % inhibition stands for the relative decrease from the control value, in per cent. Higher therefore signals a strong effect.

With `CC(C)=CCC/C(C)=C/C=C/C(C)=C/C=C/C(C)=C/C=C/C=C(C)/C=C/C=C(C)/C=C/C=C(\C)CCC=C(C)C` [Lycopene, lycopene], in the assay on MMP-1, the “% inhibition” value worked out at 65% and the “MMP-1 expression relative to UV-A only treated cells” value is 35%. The “effect on UVA-induced MMPI” value in the assay on UVA-induced MMPI was “further increase”.

With `CC1=C(/C=C/C(C)=C/C=C/C(C)=C/C=C/C=C(C)/C=C/C=C(C)/C=C/C2=C(C)CCCC2(C)C)C(C)(C)CCC1` [betacarotene], the “effect on UVA-induced collagenases” value with UVA-induced collagenases is recorded as “repress”.

With (−)-epigallocatechin gallate [EGCG], in the assay on MMP-1, the “% inhibition” value was found to be 13% and the “MMP-1 expression relative to UV-A only treated cells” value is reported as 87%. Also, the “effect on various skin collagenases” value with skin collagenases was “suppress”.

Source of the values: patent US20120059051A1, “ORAL COMPOSITION CONTAINING EGCG AND LYCOPENE” (DSM IP ASSET B.V., priority 2006, published 2012).
